Source: paper PMC5218480 (PLoS ONE, 2017)

Test system: MV-4-11 cells
Assay: Gene expression microarray analysis (Affymetrix PrimeView) and GSEA
Assay type: cell-based, human
Set-up: RFU PODN (11730768_x_at) / Fold change /veh PODN (11730768_x_at) / RFU LINC00158 (11744669_a_at) / Fold change /veh LINC00158 (11744669_a_at) / RFU DUSP10 (11751237_a_at) / Fold change /veh DUSP10 (11751237_a_at) / RFU ID3 (11757404_x_at) / Fold change /veh ID3 (11757404_x_at) / RFU PLEKHG5 (11737974_s_at) / Fold change /veh PLEKHG5 (11737974_s_at) / RFU LRRC4B (11730491_at) / Fold change /veh LRRC4B (11730491_at) / RFU GIMAP4 (11747438_a_at) / Fold change /veh GIMAP4 (11747438_a_at) / RFU KRT8 (11758183_x_at) / Fold change /veh KRT8 (11758183_x_at) / RFU CNN1 (11734310_a_at) / Fold change /veh CNN1 (11734310_a_at) / RFU VPS37D (11726825_at) / Fold change /veh VPS37D (11726825_at) / RFU C10orf10 (11716522_x_at) / Fold change /veh C10orf10 (11716522_x_at) / RFU KIR2DL2 /// KIR2DL4 /// KIR2DL5A /// KIR2DL5B /// KIR2DS1 /// KIR2DS2 /// KIR2DS3 /// KIR2DS4 /// KIR3DL3 /// KIR3DL3 /// KIR3DS1 (11738374_at) / Fold change /veh KIR2DL2 /// KIR2DL4 /// KIR2DL5A /// KIR2DL5B /// KIR2DS1 /// KIR2DS2 /// KIR2DS3 /// KIR2DS4 /// KIR3DL3 /// KIR3DL3 /// KIR3DS1 (11738374_at) / RFU C1QL1 (11718748_at) / Fold change /veh C1QL1 (11718748_at) / RFU TMPRSS4 (11747572_a_at) / Fold change /veh TMPRSS4 (11747572_a_at) / RFU HAMP (11756126_x_at) / Fold change /veh HAMP (11756126_x_at) / RFU RNFT2 (11725882_a_at) / Fold change /veh RNFT2 (11725882_a_at) / RFU NR4A2 (11747474_a_at) / Fold change /veh NR4A2 (11747474_a_at) / RFU ABCC12 (11746883_a_at) / Fold change /veh ABCC12 (11746883_a_at) / RFU TMEM136 (11760407_x_at) / Fold change /veh TMEM136 (11760407_x_at) / RFU CLDN22 /// WWC2 (11732394_at) / Fold change /veh CLDN22 /// WWC2 (11732394_at) / RFU HLA-DPB1 (11760878_x_at) / Fold change /veh HLA-DPB1 (11760878_x_at) / RFU SPINT1 (11716480_a_at) / Fold change /veh SPINT1 (11716480_a_at) / RFU GAP43 (11754022_s_at) / Fold change /veh GAP43 (11754022_s_at) / RFU A4GNT (11735810_at) / Fold change /veh A4GNT (11735810_at) / RFU PRB3 (11715151_x_at) / Fold change /veh PRB3 (11715151_x_at) / RFU TUBB4B (11761932_at) / Fold change /veh TUBB4B (11761932_at) / RFU CAPN14 (11732068_a_at) / Fold change /veh CAPN14 (11732068_a_at) / RFU TMCC2 (11721928_a_at) / Fold change /veh TMCC2 (11721928_a_at) / RFU IRGQ (11745062_a_at) / Fold change /veh IRGQ (11745062_a_at) / RFU FAM174B (11720279_a_at) / Fold change /veh FAM174B (11720279_a_at) / RFU TMPRSS4 (11748680_a_at) / Fold change /veh TMPRSS4 (11748680_a_at) / RFU FAM212B (11763350_a_at) / Fold change /veh FAM212B (11763350_a_at) / RFU PLEKHG5 (11743358_a_at) / Fold change /veh PLEKHG5 (11743358_a_at) / RFU ZSCAN30 (11745921_a_at) / Fold change /veh ZSCAN30 (11745921_a_at) / RFU CMKLR1 (11741424_a_at) / Fold change /veh CMKLR1 (11741424_a_at) / RFU LOC101060620 /// MAPK8IP1 (11723275_at) / Fold change /veh LOC101060620 /// MAPK8IP1 (11723275_at) / RFU SPTSSB (11747773_x_at) / Fold change /veh SPTSSB (11747773_x_at) / RFU PRSS12 (11739890_at) / Fold change /veh PRSS12 (11739890_at) / RFU BIN1 (11741810_x_at) / Fold change /veh BIN1 (11741810_x_at) / RFU WNT11 (11732464_a_at) / Fold change /veh WNT11 (11732464_a_at) / RFU C10orf10 (11716521_a_at) / Fold change /veh C10orf10 (11716521_a_at) / RFU C5orf56 (11738089_at) / Fold change /veh C5orf56 (11738089_at) / RFU CYB561 (11721691_x_at) / Fold change /veh CYB561 (11721691_x_at) / RFU ANKRD19P (11752326_a_at) / Fold change /veh ANKRD19P (11752326_a_at) / RFU OR2T12 /// OR2T33 /// OR2T8 (11738714_s_at) / Fold change /veh OR2T12 /// OR2T33 /// OR2T8 (11738714_s_at) / RFU VCAN (11748164_a_at) / Fold change /veh VCAN (11748164_a_at) / RFU JSRP1 (11732532_at) / Fold change /veh JSRP1 (11732532_at) / RFU KRTAP10-11 (11738290_x_at) / Fold change /veh KRTAP10-11 (11738290_x_at) / RFU MYO3A (11730013_a_at) / Fold change /veh MYO3A (11730013_a_at) / RFU EBF3 (11725865_a_at) / Fold change /veh EBF3 (11725865_a_at) / RFU CAMK2N1 (11719241_x_at) / Fold change /veh CAMK2N1 (11719241_x_at) / RFU C5orf56 (11738088_a_at) / Fold change /veh C5orf56 (11738088_a_at) / RFU OLFML3 (11715873_a_at) / Fold change /veh OLFML3 (11715873_a_at) / RFU LOC100653217 /// NTM (11731650_a_at) / Fold change /veh LOC100653217 /// NTM (11731650_a_at) / RFU MAPK11 (11762145_a_at) / Fold change /veh MAPK11 (11762145_a_at) / RFU FIZ1 (11724087_x_at) / Fold change /veh FIZ1 (11724087_x_at) / RFU OASL (11726364_x_at) / Fold change /veh OASL (11726364_x_at) / RFU SOX15 (11748057_x_at) / Fold change /veh SOX15 (11748057_x_at) / RFU CD79A (11719716_a_at) / Fold change /veh CD79A (11719716_a_at) / RFU HIST1H1D (11736915_at) / Fold change /veh HIST1H1D (11736915_at) / RFU CASKIN2 (11723855_a_at) / Fold change /veh CASKIN2 (11723855_a_at) / RFU LOC730098 (11760151_x_at) / Fold change /veh LOC730098 (11760151_x_at) / RFU OR4N2 (11742367_at) / Fold change /veh OR4N2 (11742367_at) / RFU PRRT2 (11749266_a_at) / Fold change /veh PRRT2 (11749266_a_at) / RFU SNX32 (11753110_a_at) / Fold change /veh SNX32 (11753110_a_at) / RFU CDHR5 (11726645_a_at) / Fold change /veh CDHR5 (11726645_a_at) / RFU RCAN1 (11760418_a_at) / Fold change /veh RCAN1 (11760418_a_at) / RFU FAM167A (11723789_a_at) / Fold change /veh FAM167A (11723789_a_at) / RFU FAM26E (11764081_at) / Fold change /veh FAM26E (11764081_at) / RFU ISYNA1 (11749810_s_at) / Fold change /veh ISYNA1 (11749810_s_at) / RFU ACY1 (11761880_at) / Fold change /veh ACY1 (11761880_at) / RFU 11764098_at / Fold change /veh 11764098_at / RFU SAMD14 (11745864_x_at) / Fold change /veh SAMD14 (11745864_x_at) / RFU NPB (11741838_a_at) / Fold change /veh NPB (11741838_a_at) / RFU TMPRSS6 (11731388_a_at) / Fold change /veh TMPRSS6 (11731388_a_at) / RFU KRTAP10-2 (11738614_at) / Fold change /veh KRTAP10-2 (11738614_at) / RFU ARHGAP8 /// PRR5-ARHGAP8 (11727945_x_at) / Fold change /veh ARHGAP8 /// PRR5-ARHGAP8 (11727945_x_at) / RFU KRTAP5-7 /// NADSYN1 (11734609_at) / Fold change /veh KRTAP5-7 /// NADSYN1 (11734609_at) / RFU RASL12 (11751679_a_at) / Fold change /veh RASL12 (11751679_a_at) / RFU CDKN2B (11736163_a_at) / Fold change /veh CDKN2B (11736163_a_at) / RFU PRF1 (11729649_at) / Fold change /veh PRF1 (11729649_at) / RFU, ZNF638 /// ZNF638-IT1 / Fold change vs veh, ZNF638 /// ZNF638-IT1 / RFU, PANK3 / Fold change vs veh, PANK3 / RFU, SH3YL1 / Fold change vs veh, SH3YL1 / RFU, ZEB2 / Fold change vs veh, ZEB2 / RFU, NRIP1 / Fold change vs veh, NRIP1 / RFU, PTTG1IP / Fold change vs veh, PTTG1IP / RFU, CAPN2 / Fold change vs veh, CAPN2 / RFU, MED14 / Fold change vs veh, MED14 / RFU, SNORA58 / Fold change vs veh, SNORA58 / RFU, C1orf63 / Fold change vs veh, C1orf63 / RFU, LRRFIP1 / Fold change vs veh, LRRFIP1 / RFU, NDUFAF7 / Fold change vs veh, NDUFAF7 / RFU, SLC12A2 / Fold change vs veh, SLC12A2 / RFU, IBTK / Fold change vs veh, IBTK / RFU, ESF1 / Fold change vs veh, ESF1 / Fold change vs veh, TMEM50B / RFU, TAOK1 / Fold change vs veh, TAOK1 / RFU, ACBD3 / Fold change vs veh, ACBD3 / RFU, TMA16 / Fold change vs veh, TMA16 / RFU, RWDD3 / Fold change vs veh, RWDD3 / RFU, BCAT1 / Fold change vs veh, BCAT1 / RFU, EDEM3 / Fold change vs veh, EDEM3 / RFU, TMEM33 / Fold change vs veh, TMEM33 / RFU, WDR75 / Fold change vs veh, WDR75 / RFU, AHCTF1 / Fold change vs veh, AHCTF1 / RFU, TFRC / Fold change vs veh, TFRC / RFU, ZDHHC17 / Fold change vs veh, ZDHHC17 / RFU, NOM1 / Fold change vs veh, NOM1 / RFU, ARL8B / Fold change vs veh, ARL8B / RFU, ZBTB11 / Fold change vs veh, ZBTB11 / RFU, TAMM41 / Fold change vs veh, TAMM41 / RFU, KIAA1704 /// LOC100996395 / Fold change vs veh, KIAA1704 /// LOC100996395 / RFU, ING1 / Fold change vs veh, ING1 / RFU, TRMT61B / Fold change vs veh, TRMT61B / RFU, FUBP3 / Fold change vs veh, FUBP3 / RFU, TP53 / Fold change vs veh, TP53 / RFU, TNKS2 / Fold change vs veh, TNKS2 / RFU, ZFP14 / Fold change vs veh, ZFP14 / RFU, ACTR2 / Fold change vs veh, ACTR2 / RFU, PPP3R1 / Fold change vs veh, PPP3R1 / RFU, PIK3R1 / Fold change vs veh, PIK3R1 / RFU, HNRNPA1 / Fold change vs veh, HNRNPA1 / RFU, RNF170 / Fold change vs veh, RNF170 / RFU, ZNF28 / Fold change vs veh, ZNF28 / RFU, RNGTT / Fold change vs veh, RNGTT / RFU, OGT / Fold change vs veh, OGT / RFU, BRD1 / Fold change vs veh, BRD1 / RFU, MARS / Fold change vs veh, MARS / RFU, ZNF655 / Fold change vs veh, ZNF655 / RFU, FAHD1 / Fold change vs veh, FAHD1 / RFU, BDP1 / Fold change vs veh, BDP1 / RFU, LRRCC1 / Fold change vs veh, LRRCC1 / RFU, ARID1A / Fold change vs veh, ARID1A / RFU, ZNF146 / Fold change vs veh, ZNF146 / RFU, ZNF330 / Fold change vs veh, ZNF330 / RFU, GPN3 / Fold change vs veh, GPN3 / RFU, C9orf123 / Fold change vs veh, C9orf123 / RFU, N4BP2L2 / Fold change vs veh, N4BP2L2 / RFU, ARFIP1 / Fold change vs veh, ARFIP1 / RFU, FAM179B / Fold change vs veh, FAM179B / RFU, BCL10 / Fold change vs veh, BCL10 / RFU, UHRF1BP1L / Fold change vs veh, UHRF1BP1L / RFU, BET1 / Fold change vs veh, BET1 / RFU, CNOT2 / Fold change vs veh, CNOT2 / RFU, ZNF268 / Fold change vs veh, ZNF268 / Fold change vs veh, ZNF507 / RFU, DGCR2 / Fold change vs veh, DGCR2 / RFU, WDSUB1 / Fold change vs veh, WDSUB1 / Fold change vs veh, HSP90B1 /// MIR3652 / RFU, ADSS / Fold change vs veh, ADSS / RFU, GK / Fold change vs veh, GK / RFU, ZNF148 / Fold change vs veh, ZNF148 / RFU, TAF9 / Fold change vs veh, TAF9 / RFU, SLC1A5 / Fold change vs veh, SLC1A5 / RFU, SLMO2 / Fold change vs veh, SLMO2 / RFU, ABCC4 / Fold change vs veh, ABCC4 / RFU, LOC101060439 /// RAP1B / Fold change vs veh, LOC101060439 /// RAP1B / RFU, RFX7 / Fold change vs veh, RFX7 / RFU, GTPBP10 / Fold change vs veh, GTPBP10 / RFU, CNEP1R1 / Fold change vs veh, CNEP1R1 / RFU, BIVM-ERCC5 /// ERCC5 / Fold change vs veh, BIVM-ERCC5 /// ERCC5 / RFU, ILF3 / Fold change vs veh, ILF3 / RFU 11762660_at / Fold change /veh 11762660_at / RFU VCAN (11757783_s_at) / Fold change /veh VCAN (11757783_s_at) / RFU DDX43 (11728927_at) / Fold change /veh DDX43 (11728927_at) / RFU KRT8 (11758188_x_at) / Fold change /veh KRT8 (11758188_x_at) / RFU NKD1 (11759106_at) / Fold change /veh NKD1 (11759106_at) / RFU SRD5A1 (11742802_a_at) / Fold change /veh SRD5A1 (11742802_a_at) / RFU TPSAB1 /// TPSB2 (11721975_s_at) / Fold change /veh TPSAB1 /// TPSB2 (11721975_s_at) / RFU GSTM3 (11746129_a_at) / Fold change /veh GSTM3 (11746129_a_at) / RFU IL23R (11737362_x_at) / Fold change /veh IL23R (11737362_x_at) / RFU TMEM51 (11727254_a_at) / Fold change /veh TMEM51 (11727254_a_at) / RFU PIWIL2 (11732686_x_at) / Fold change /veh PIWIL2 (11732686_x_at) / RFU ORM1 (11744905_x_at) / Fold change /veh ORM1 (11744905_x_at) / RFU CCDC152 (11743942_at) / Fold change /veh CCDC152 (11743942_at) / RFU ECM1 (11717891_a_at) / Fold change /veh ECM1 (11717891_a_at) / RFU IL23R (11748794_a_at) / Fold change /veh IL23R (11748794_a_at) / RFU TNFAIP8L3 (11732012_x_at) / Fold change /veh TNFAIP8L3 (11732012_x_at) / RFU MBOAT4 (11741988_at) / Fold change /veh MBOAT4 (11741988_at) / RFU 11764193_at / Fold change /veh 11764193_at / RFU TMEM53 (11763286_at) / Fold change /veh TMEM53 (11763286_at) / RFU MAGEB2 (11727129_at) / Fold change /veh MAGEB2 (11727129_at) / RFU TMEM200A (11744735_a_at) / Fold change /veh TMEM200A (11744735_a_at) / RFU CCDC152 (11751479_a_at) / Fold change /veh CCDC152 (11751479_a_at) / RFU FAM211A (11726209_a_at) / Fold change /veh FAM211A (11726209_a_at) / RFU RGS16 (11746705_a_at) / Fold change /veh RGS16 (11746705_a_at) / RFU VCAN (11755009_s_at) / Fold change /veh VCAN (11755009_s_at) / RFU RHOB (11743442_s_at) / Fold change /veh RHOB (11743442_s_at) / RFU RGS16 (11720943_a_at) / Fold change /veh RGS16 (11720943_a_at) / RFU RGS16 (11720944_at) / Fold change /veh RGS16 (11720944_at) / RFU, VPS4B / Fold change vs veh, VPS4B / RFU, CREB1 / Fold change vs veh, CREB1 / RFU, DNAJC13 / Fold change vs veh, DNAJC13 / RFU, GNAQ / Fold change vs veh, GNAQ / RFU, CDK5R1 / Fold change vs veh, CDK5R1 / RFU, ZRANB3 / Fold change vs veh, ZRANB3 / RFU, CUL4A / Fold change vs veh, CUL4A / RFU, CCNY / Fold change vs veh, CCNY / RFU, UFL1 / Fold change vs veh, UFL1 / RFU, COG3 / Fold change vs veh, COG3 / RFU, DIAPH2 / Fold change vs veh, DIAPH2 / RFU, SKA2 / Fold change vs veh, SKA2 / RFU, AFF3 / Fold change vs veh, AFF3 / RFU, LMF1 / Fold change vs veh, LMF1 / RFU, IPO11 / Fold change vs veh, IPO11 / RFU, DFFB / Fold change vs veh, DFFB / RFU, FOXP1 / Fold change vs veh, FOXP1 / RFU, CARD8 / Fold change vs veh, CARD8 / RFU, STRN3 / Fold change vs veh, STRN3 / RFU, ADK / Fold change vs veh, ADK / RFU, RASSF2 / Fold change vs veh, RASSF2 / RFU, WIPF1 / Fold change vs veh, WIPF1 / RFU, LARP1B / Fold change vs veh, LARP1B / RFU, RASA1 / Fold change vs veh, RASA1 / RFU, RB1 / Fold change vs veh, RB1 / RFU, PPFIA1 / Fold change vs veh, PPFIA1 / RFU, MAT2A / Fold change vs veh, MAT2A / RFU, CCT5 / Fold change vs veh, CCT5 / RFU, WDR92 / Fold change vs veh, WDR92 / RFU, CUX1 / Fold change vs veh, CUX1 / RFU, TTC7A / Fold change vs veh, TTC7A / RFU, TMEM135 / Fold change vs veh, TMEM135 / RFU, DEPTOR / Fold change vs veh, DEPTOR / RFU, CPM / Fold change vs veh, CPM / RFU, DNAJB6 / Fold change vs veh, DNAJB6 / RFU, CACNA2D3 / Fold change vs veh, CACNA2D3 / RFU, DTX4 / Fold change vs veh, DTX4 / RFU, TFCP2 / Fold change vs veh, TFCP2 / RFU, GMCL1 /// GMCL1P1 / Fold change vs veh, GMCL1 /// GMCL1P1 / RFU, AEBP2 / Fold change vs veh, AEBP2 / RFU, SNHG1 /// SNORD22 /// SNORD25 /// SNORD26 /// SNORD27 /// SNORD28 /// SNORD29 /// SNORD31 / Fold change vs veh, SNHG1 /// SNORD22 /// SNORD25 /// SNORD26 /// SNORD27 /// SNORD28 /// SNORD29 /// SNORD31 / Fold change (Aza/veh), C12orf56 (ProbeSet 11735607_a_at) / Fold change (ACY-1035/veh), C12orf56 (ProbeSet 11735607_a_at) / Fold change (Aza/veh), FGFR1OP (ProbeSet 11751329_s_at) / Fold change (ACY-1035/veh), FGFR1OP (ProbeSet 11751329_s_at) / Fold change (Aza/veh), VPS36 (ProbeSet 11739960_a_at) / Fold change (ACY-1035/veh), VPS36 (ProbeSet 11739960_a_at) / RFU SYPL1 (11715823_x_at) / Fold change /veh SYPL1 (11715823_x_at) / RFU IGFBP7 (11715501_s_at) / Fold change /veh IGFBP7 (11715501_s_at) / RFU REEP3 (11722064_at) / Fold change /veh REEP3 (11722064_at) / RFU IGLL1 (11728026_x_at) / Fold change /veh IGLL1 (11728026_x_at): dose or concentration left out as unconfirmed
Settings: ProbeSet 11732165_x_at; LIST D

Nc1ccc(-c2cccs2)cc1NC(=O)c1ccc2c(c1)cc(C1CC1)n2CCN1CCOCC1 [ACY-1035]
Fold change vs veh, LMF1: 0.85
